Counter-ions that a name gives are not always drawn.
Tests used:
[1] = molecular target: T1, Human fibrinogen receptor (αIIbβ3) (Homo sapiens, UniProt P05106+P08514); experiment: Purified IIb/IIIa receptor assay (solid phase receptor assay, competition with biotinylated vitronectin); assay type: binding; conditions: read-out: IIb/IIIa IC50
T1 construct: Human fibrinogen receptor (αIIbβ3) was purified from outdated platelets; from tissue; host or cells: outdated human platelets
Outline: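 Purified platelet αIIbβ3 coated overnight at 4 °C in TBS with 1.0 mM Ca/Mg/Mn, pH 7.4, then BSA-blocked. Compounds (top 1.0×10^−4 M) competed with 1 nM biotinylated vitronectin for 2 h at room temperature. Bound label detected by HRP anti-biotin, A450; values normalized to no-competitor controls, four-parameter fit.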

[2] = molecular target: T2, Human vitronectin receptor (αvβ3) (Homo sapiens, UniProt P05106+P06756); experiment: Vitronectin adhesion assay (solid phase receptor assay, competition with biotinylated vitronectin); assay type: binding; conditions: read-out: AvB3 IC50
T2 construct: Human vitronectin receptor (αvβ3) was purified from human placenta; from tissue; host or cells: human placenta
Outline: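 Purified human αvβ3 coated overnight at 4 °C in TBS with 1.0 mM Ca++, Mg++, Mn++, pH 7.4; compounds (top final 1.0×10^−4 M) competed with 1 nM biotinylated vitronectin for 2 h at room temperature. Bound ligand detected by HRP anti-biotin/OPD at A450; values normalized to no-competitor controls, four-parameter curve fit.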

platelet rich plasma = experiment: Human platelet rich plasma assay (ADP induced platelet aggregation); assay type: cell-based; conditions: Homo sapiens, Platelet, ADP induced platelet aggregation in human platelet rich plasma; read-out: Human PRP
Procedure: Human Platelet Rich Plasma Assays
Healthy aspirin free donors were selected from a pool of volunteers. The harvesting of platelet rich plasma and subsequent ADP induced platelet aggregation assays were performed as described in Zucker, M. B., “Platelet Aggregation Measured by the Photometric Method”, Methods in Enzymology 169(1989):117-133. Standard venipuncture techniques using a butterfly allowed the withdrawal of 45 mL of whole blood into a 60 mL syringe containing 5 mL of 3.8% trisodium citrate. Following thorough mixing in the syringe, the anti-coagulated whole blood was transferred to a 50 mL conical polyethylene tube. The blood was centrifuged at room temperature for 12 minutes at 200×g to sediment non-platelet cells. Platelet rich plasma was removed to a polyethylene tube and stored at room temperature until used. Platelet poor plasma was obtained from a second centrifugation of the remaining blood at 2000×g for 15 minutes. Platelet counts are typically 300,000 to 500,000 per microliter. Platelet rich plasma (0.45 mL) was aliquoted into siliconized cuvettes and stirred (1100 rpm) at 37° C. for 1 minute prior to adding 50 uL of pre-diluted test compound. After 1 minute of mixing, aggregation was initiated by the addition of 50 uL of 200 uM ADP. Aggregation was recorded for 3 minutes in a Payton dual channel aggregometer (Payton Scientific, Buffalo, N.Y.). The percent inhibition of maximal response (saline control) for a series of test compound dilutions was used to determine a dose response curve.

| SMILES | IC50 [1] [nM] | IC50 [2] [nM] | IC50 (platelet rich plasma) [µM] |
| --- | --- | --- | --- |
| C#C[C@H](CC(=O)O)NC(=O)CNC(=O)c1cccc(NC(=N)N2CCCC2)c1 [Example 34, βS-[[2-[[[3-[[imino(1-pyrrolidinyl)methyl]amino]phenyl]carbonyl]amino]acetyl]amino]-4-pentynoic acid, trifluoroacetate salt] | 269 | 94.3 | > 200 |
| N=C(N)Nc1cccc(C(=O)NCC(=O)NC(CC(=O)O)c2ccc3c(c2)OCCO3)c1 (stereo not drawn) [Example 95, β-[[(2-[[[3-[(aminoiminomethyl)amino]phenyl]carbonyl]amino]acetyl]amino]-1,4-benzodioxin-6-propanoic acid, trifluoroacetate salt] | 25.4 | 1.43 | > 200 |
| N#C/N=C(\N)Nc1cccc(C(=O)NCC(=O)NC(CC(=O)O)c2ccccc2)c1 (stereo not drawn) [Example 138, β-[[2-[[[3-[[amino(cyanoimino)methyl]amino]phenyl]carbonyl]amino]acetyl]amino]benzenepropanoic acid] | 5820 | 36.9 | > 200 |
| N=C(N)Nc1cccc(C(=O)NCC(=O)NC(CC(=O)O)c2cc([N+](=O)[O-])ccc2O)c1 (racemic) [Example 226, (±)β-[[2-[[[3-[(aminoiminomethyl)amino]phenyl]carbonyl]amino]acetyl]amino]-2-hydroxy-5-nitrobenzenepropanoic acid, trifluoroacetate salt] | 2910 | 7.07 | > 200 |
| O=C(O)CC(NC(=O)CNC(=O)c1cccc(NC(=O)NCc2cccnc2)c1)c1cccnc1 (stereo not drawn) [Example 127, β-[[2-[[[3-[[[3-pyridinylmethyl)amino]carbonyl]amino]phenyl]carbonyl]amino]acetyl]amino]pyridine-3-propanoic acid, bis trifluoroacetate salt] | 461 | 0.51 | > 200 |
| N=C(N)Nc1cccc(C(=O)NCC(=O)NC(CC(=O)O)c2cc(Cl)cc(Cl)c2O)c1 (racemic) [Example 225, (±)β-[[2-[[[3-[(aminoiminomethyl)amino]phenyl]carbonyl]amino]acetyl]amino]-3,5-dichloro-2-hydroxybenzenepropanoic acid, trifluoroacetate salt, monohydrate] | 471 | 2.76 | > 20 |
| CN/C(=N\C#N)Nc1cccc(C(=O)NCC(=O)NC(CC(=O)O)c2ccccc2)c1 (stereo not drawn) [Example 137, β-[[2-[[[3-[[(cyanoimino)(methylamino)methyl]amino]phenyl]carbonyl]amino]acetyl]amino]benzenepropanoic acid] | 6500 | 16.2 | > 200 |

Other lines, results leading:

| IC50 [1] [nM] | IC50 [2] [nM] | IC50 (platelet rich plasma) [µM] | SMILES |
| --- | --- | --- | --- |
| 152 | 1.21 | > 200 | N=C(N)Nc1cccc(C(=O)NCC(=O)N[C@H](CSc2ccccc2C(=O)O)CC(=O)O)c1 [Example 72, 2-[[2S-[[2-[[[3-[(aminoiminomethyl)amino]phenyl]carbonyl]amino]acetyl]amino]-2-(carboxymethyl)ethyl]thio]benzoic acid, trifluoroacetate salt] |
| 70.3 | 0.49 | > 20 | O=C(O)CC(NC(=O)CNC(=O)c1cccc(NC2=NCCN2)c1)c1cc(Cl)cc(Cl)c1 (racemic) [Example 191, (±)β-[[2-[[[3-[(4,5-dihydro-1H-imidazol-2-yl)amino]phenyl]carbonyl]amino]acetyl]amino]-3,5-dichlorobenzenepropanoic acid, trifluoroacetate salt] |
| 13.9 | 0.88 | > 20 | N=C(N)Nc1cccc(C(=O)NCC(=O)NC(CC(=O)O)c2ccc(-c3ccccc3)cc2)c1 (racemic) [Example 37, (±)β-[[2-[[[3-[(aminoiminomethyl)amino]phenyl]carbonyl]amino]acetyl]amino][1,1′-biphenyl]-4-propanoic acid, trifluoroacetate salt] |
